IC50 data for 26 compounds are collected here from patent US20230031406A1, “COMPOUNDS AND COMPOSITIONS FOR TREATING CONDITIONS ASSOCIATED WITH NLRP ACTIVITY” (Novartis AG, priority 2018, published 2023).

Like-named read-outs stand apart in the source and are kept apart here.

This test relates to PMA-differentiated THP-1 cells. As to the kind of experiment: IL-1β production in PMA-differentiated THP-1 cells stimulated with gramicidin (hTHP-1 assay containing 2% fetal bovine serum; Procedures 1 and 2). The test is classed as cell-based, human. Summed up: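 Secreted IL-1β, read by HTRF, after gramicidin challenge (5 μM, 2 h) of THP-1 cells differentiated with PMA (20 ng/ml, 16-18 h) and plated at 50,000 cells/well in 2% FBS medium. Compounds, 0.0017-100 μM final with 0.37% DMSO, were added 1 h before stimulation.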

Setting [1] is: Homo sapiens, THP-1, Table B1, 2% fetal bovine serum, class symbols, read-out: Average IC50 of compounds in hTHP-1 assay: hTHP-1 IC50.
Setting [2] is: Homo sapiens, THP-1, Table B4, 2% fetal bovine serum, class symbols, read-out: hTHP-1 IC50.
Setting [3] is: Homo sapiens, THP-1, Table B3, hTHP-1 assay, 2% fetal bovine serum, class symbols, read-out: IC50.
Setting [4] is: Homo sapiens, THP-1, Table B2, 2% fetal bovine serum, class symbols, read-out: hTHP-1 IC50.
Where [5] appears, read: Table B2, 2% fetal bovine serum, class symbols, read-out: hTHP-1 IC50.
The mark [6] stands for this setting: Table B1, 2% fetal bovine serum, class symbols, read-out: Average IC50 of compounds in hTHP-1 assay: hTHP-1 IC50.

One may read the IC50 as the midpoint of a concentration-inhibition curve. On to `CC(C)(O)c1ncc(S(N)(=O)=NC(=O)Nc2c3c(nc4c2CCC4(C)C)CCC3)s1` (centres unmarked) [Compound 153, N′-((3,3-dimethyl-1,2,3,5,6,7-hexahydrodicyclopenta[b,e]pyridin-8-yl)carbamoyl)-2-(2-hydroxypropan-2-yl)thiazole-5-sulfonimidamide], for which the IC50 under setting [1] was 40 to 200 nM.

As to `CCn1cc(F)c(S(N)(=O)=NC(=O)Nc2c3c(nc(C(F)(F)F)c2C2CC2)CCC3)n1` (centres unmarked) [Example 744, N′-((3-cyclopropyl-2-(trifluoromethyl)-6,7-dihydro-5H-cyclopenta[b]pyridin-4-yl)carbamoyl)-1-ethyl-4-fluoro-1H-pyrazole-3-sulfonimidamide], the IC50 under setting [2] lay in the range of 40 to 200 nM.

For `C[C@@H]1CCc2c1nc1c(c2NC(=O)N=S(N)(=O)c2nn(C(F)F)cc2F)CCC1` (stereo partly drawn) [Example 568, 1-(Difluoromethyl)-4-fluoro-N′-(((R)-3-methyl-1,2,3,5,6,7-hexahydrodicyclopenta[b,e]pyridin-8-yl)carbamoyl)-1H-pyrazole-3-sulfonimidamide], the IC50 under setting [3] was 40 to 200 nM.

On to `Cc1c(CO)nc2c(c1NC(=O)N=S(N)(=O)c1cnc(C(C)(C)O)s1)CCC2` (centres unmarked) [Compound 619, N-((2-(hydroxymethyl)-3-methyl-6,7-dihydro-5H-cyclopenta[b]pyridin-4-yl)carbamoyl)-2-(2-hydroxypropan-2-yl)thiazole-5-sulfonimidamide], for which the IC50 under setting [4] lay within 5000 to 30000 nM.

Take `COCc1nc(C(C)(C)O)sc1S(N)(=O)=NC(=O)Nc1c2c(nc3c1CCC3)CCC2` (centres unmarked) [Compound 689, N′-((1,2,3,5,6,7-hexahydrodicyclopenta[b,e]pyridin-8-yl)carbamoyl)-2-(2-hydroxypropan-2-yl)-4-(methoxymethyl)thiazole-5-sulfonimidamide]: the IC50 under setting [4] fell in the range of 1000 to 5000 nM.

In the case of `CC(C)(O)c1csc(S(N)(=O)=NC(=O)Nc2cc(C(F)(F)F)nc3c2CCC3)c1` (single isomer, unassigned) [Example 667, (R) or (S)-4-(2-hydroxypropan-2-yl)-N′-((2-(trifluoromethyl)-6,7-dihydro-5H-cyclopenta[b]pyridin-4-yl)carbamoyl)thiophene-2-sulfonimidamide], the IC50 under setting [3] was 1000 to 5000 nM.

Regarding `CC(C)n1cc(F)c(S(N)(=O)=NC(=O)Nc2c3c(nc(C(F)(F)F)c2C2CC2)CCC3)n1` (centres unmarked) [Compound 1104, N′-((3-cyclopropyl-2-(trifluoromethyl)-6,7-dihydro-5H-cyclopenta[b]pyridin-4-yl)carbamoyl)-4-fluoro-1-isopropyl-1H-pyrazole-3-sulfonimidamide], for the setting “Homo sapiens, THP-1, read-out: hTHP-1 IC50 in 2% FBS, hTHP-1 assay containing 2% fetal bovine serum, Table B5”, the IC50 was in the range of 200 to 1000 nM.

Take `Cc1nc2c(c(NC(=O)N=S(N)(=O)c3cc(C(C)(C)O)cs3)c1C(C)C)CCC2` (single isomer, unassigned) [Compound 622a, (S) or (R)-4-(2-Hydroxypropan-2-yl)-N′-((3-isopropyl-2-methyl-6,7-dihydro-5H-cyclopenta[b]pyridin-4-yl)carbamoyl) thiophene-2-sulfonimidamide]: the IC50 under setting [5] was 5000 to 30000 nM.

Consider `CC1CCc2c1nc1c(c2NC(=O)N=S(N)(=O)c2cc(C(C)(C)O)cs2)CCC1C` [Compound 131a, (R,S,S) and (R,R,R)-N′-((3,5-dimethyl-1,2,3,5,6,7-hexa-hydrodicyclo-penta[b,e]pyridin-8-yl)carbamoyl)-4-(2-hy-droxypropan-2-yl)thiophene-2-sulfonimidamide], for which the IC50 under setting [6] lay in the range of 200 to 1000 nM.

As for `CC1(C)CCc2c1nc1c(c2NC(=O)N=[S@](N)(=O)c2cc([C@@](C)(O)CO)cs2)CCC1` [Example 654, (S)-4-((R)-1,2-dihydroxypropan-2-yl)-N′-((3,3-dimethyl-1,2,3,5,6,7-hexahydrodicyclopenta[b,e]pyridin-8-yl)carbamoyl) thiophene-2-sulfonimidamide], the IC50 under setting [3] is 5000 to 30000 nM.

As for `CC1(C)CCc2c1nc1c(c2NC(=O)N=S(N)(=O)c2cc([C@@](C)(O)CO)cs2)CCC1` (stereo partly drawn) [Example 624, 4-((R)-1,2-dihydroxypropan-2-yl)-N′-((3,3-dimethyl-1,2,3,5,6,7-hexahydrodicyclopenta[b,e]pyridin-8-yl)carbamoyl)thiophene-2-sulfonimidamide], the IC50 under setting [3] fell in the range of 200 to 1000 nM.

For `CCn1ccc([S@](N)(=O)=NC(=O)Nc2c3c(nc(C4CC4)c2C2CC2)CCC3)n1` [Compound 726b], the IC50 under setting [4] was in the range of 200 to 1000 nM.

As for `CC(C)(O)c1csc(S(N)(=O)=NC(=O)Nc2c3c(nc(C4CC4)c2C2CC2)CCC3)c1` (single isomer, unassigned) [Compound 670a, (S) or (R)-N′-((2,3-dicyclopropyl-6,7-dihydro-5H-cyclopenta[b]pyridin-4-yl)carbamoyl)-4-(2-hydroxypropan-2-yl)thiophene-2-sulfonimidamide], under setting [5], the IC50 is 5000 to 30000 nM.

Take `CCn1cc(F)c(S(N)(=O)=NC(=O)Nc2c(C)c(C(F)(F)F)nc3c2CCC3)n1` (centres unmarked) [Example 597, 1-Ethyl-4-fluoro-N′-((3-methyl-2-(trifluoromethyl)-6,7-dihydro-5H-cyclopenta[b]pyridin-4-yl)calbamoyl)-1H-pyrazole-3-sulfonimidamide]: the IC50 under setting [3] lay in the range of 40 to 200 nM.

As for `Cc1c(C2CC2)nc2c(c1NC(=O)N=S(N)(=O)c1nc(C(C)(C)O)cs1)CCC2` (single isomer, unassigned) [Compound 626a], the IC50 under setting [5] fell in the range of 5000 to 30000 nM.

`Cn1nc(S(N)(=O)=NC(=O)Nc2c3c(nc4c2CCC4)CCC3)cc1C(C)(C)O` (single isomer, unassigned) [Compound 158b, (S) or (R)-N′-((1,2,3,5,6,7-hexahydrodicyclo-penta[b,e]pyridin-8-yl)carbamoyl)-5-(2-hydroxypropan-2-yl)-1-methyl-1H-pyrazole-3-sulfonimidamide]: for the setting “Homo sapiens, THP-1, Table B1, 2% fetal bovine serum, numeric bounds, read-out: Average IC50 of compounds in hTHP-1 assay: hTHP-1 IC50”, the IC50 was greater than 30000 nM.

For the compound `CCn1cc(F)c(S(N)(=O)=NC(=O)Nc2c(-c3ccccc3)cnc3c2CCC3)n1` (centres unmarked) [Example 745, 1-Ethyl-4-fluoro-N′-((3-phenyl-6,7-dihydro-5H-cyclopenta[b]pyridin-4-yl)carbamoyl)-1H-pyrazole-3-sulfonimidamide], the IC50 under setting [2] lay in the range of 1000 to 5000 nM.

Consider `NS(=O)(=NC(=O)Nc1c2c(nc3c1CCC31CC1)CCC2)c1nn(C(F)F)cc1F` (single isomer, unassigned) [Example 681, (R) or (S)-1-(difluoromethyl)-4-fluoro-N′-((1′,5′,6′,7′-tetrahydro-2′H-spiro[cyclopropane-1,3′-dicyclopenta[b,e]pyridin]-8′-yl)carbamoyl)-1H-pyrazole-3-sulfonimidamide], for which, where the note is “Table B3, hTHP-1 assay, 2% fetal bovine serum, class symbols, read-out: IC50”, the IC50 was in the range of 40 to 200 nM.

As for `CCc1c(C2CC2)nc2c(c1NC(=O)N=S(N)(=O)c1cnc(C(C)(C)O)s1)CCC2` (centres unmarked) [Compound 675, N′-((2-cyclopropyl-3-ethyl-6,7-dihydro-5H-cyclopenta[b]pyridin-4-yl)carbamoyl)-2-(2-hydroxypropan-2-yl)thiazole-5-sulfonimidamide], the IC50 under setting [4] was in the range of 1000 to 5000 nM.

For `CC(C)(O)c1ncc(S(N)(=O)=NC(=O)Nc2nc3c(c4c2CCC4)CCC3)s1` (centres unmarked) [Compound 677, N′-((1,2,3,5,6,7-hexahydrodicyclopenta[b,d]pyridin-5-yl)carbamoyl)-2-(2-hydroxypropan-2-yl)thiazole-5-sulfonimidamide], the IC50 under setting [4] was in the range of 1000 to 5000 nM.

On to `CC1CCc2c1nc1c(c2NC(=O)N=S(N)(=O)c2cc(C(C)(C)O)cs2)CCC1` (single isomer, unassigned) [Compound 141ba, (S,S) or (S,R)-4-(2-hydroxypropan-2-yl)-N′-((3-methyl-1,2,3,5,6,7-hexahy-drodicyclopenta[b,e]pyridin-8-yl)carbamoyl)thiophene-2-sulfonimidamide], for which, under setting [6], the IC50 was in the range of 1000 to 5000 nM.

On to `CC1(C)CCc2c1nc1c(c2NC(=O)N=S(N)(=O)c2cnn3c2OCCC3)CCC1` (centres unmarked) [Compound 304, N′-((3,3-dimethyl-1,2,3,5,6,7-hexahydrodicyclopenta[b,e]pyridin-8-yl)carbamoyl)-6,7-dihydro-5H-pyrazolo[5,1-b][1,3]oxazine-3-sulfonimidamide], for which the IC50 under setting [4] is 1000 to 5000 nM.

Turning to `Cc1nc2c(c(NC(=O)N=S(N)(=O)c3cnc(C(C)(C)O)s3)c1C)CCC2` (centres unmarked) [Compound 138, N′-((2,3-dimethyl-6,7-dihydro-5H-cyclopenta[b]pyridin-4-yl)carbamoyl)-2-(2-hydroxypropan-2-yl)thiazole-5-sulfonimidamide], the IC50 under setting [1] was in the range of 5000 to 30000 nM.

`CC(=O)c1csc(S(N)(=O)=NC(=O)Nc2c3c(nc4c2CC[C@H]4C)CCC3)c1` (stereo partly drawn) [Example 627, 4-Acetyl-N′-(((R)-3-methyl-1,2,3,5,6,7-hexahydrodicyclopenta[b,e]pyridin-8-yl)carbamoyl)thiophene-2-sulfonimidamide]: the IC50 under setting [3] fell in the range of 200 to 1000 nM.

On to `NS(=O)(=NC(=O)Nc1c2c(nc(C3CC3)c1C1CC1)CCC2)c1nn(C(F)F)cc1F` (single isomer, unassigned) [Example 764, (S) or (R)-N′-((2,3-dicyclopropyl-6,7-dihydro-5H-cyclopenta[b]pyridin-4-yl)carbamoyl)-1-(difluoromethyl)-4-fluoro-1H-pyrazole-3-sulfonimidamide], for which the IC50 (Table B4, 2% fetal bovine serum, class symbols, read-out: hTHP-1 IC50) lay in the range of 5000 to 30000 nM.

With `CC(C)n1ccc(S(N)(=O)=NC(=O)Nc2c3c(nc4c2CCC4)CCC3)n1` (single isomer, unassigned) [Compound 119a, (R) or (S)-N′-((1,2,3,5,6,7-hexahydrodicyclo-penta[b,e]pyridin-8-yl)carbamoyl)-1-isopropyl-1H-pyrazole-3-sulfonimidamide], under setting [1], the IC50 lay within 1000 to 5000 nM.
